Measurements published in patent US20170202782A1 (Abraxis BioScience, LLC, priority 2014, published 2017).

Legend:
[1] = system: human pancreatic carcinoma MiaPACA2 xenograft tumors; experiment: CIVO arrayed microinjection into xenografted MiaPACA2 tumors, immunofluorescence (CC3, pHH3)
Experimental: Microinjections were performed using the CIVO™ arrayed microinjection device (Presage Biosciences, Seattle Wash.). This device enables simultaneous delivery of multiple drug samples, each individually, directly into spatially defined positions within a living tumor. The CIVO device having a 5 needle array was inserted transcutaneously into flank tumors of anesthetized mice.
24 hours later, tumors were resected and sectioned across the axis of injection to produce histological sections of tumor that show the 5 different sites of injection.
Circular regions of interests (ROI) centered on the injection sites were inscribed. Within each ROI, the fraction of cells expressing CC3 was mapped as a function of radial distance from the injection site. To generate radial response plots, calculations were made at 100 micron intervals and were based on all cells within a 100 micron wide band centered at each radial distance. Measurements began at 200 microns to exclude regions directly affected by needle induced injury.
Tumors from a first set of mice were processed for immunofluorescence analysis with CC3 antibodies 24 hours after injection (FIG. 3A), and tumors from a second set were processed for analysis with CC3 antibodies 48 hours after injection (FIG. 3B). […]

[2] = biological target: T1, Bcl-w (Homo sapiens, UniProt Q92843); details: cited from earlier work
T1 sequence (Q92843 1-193): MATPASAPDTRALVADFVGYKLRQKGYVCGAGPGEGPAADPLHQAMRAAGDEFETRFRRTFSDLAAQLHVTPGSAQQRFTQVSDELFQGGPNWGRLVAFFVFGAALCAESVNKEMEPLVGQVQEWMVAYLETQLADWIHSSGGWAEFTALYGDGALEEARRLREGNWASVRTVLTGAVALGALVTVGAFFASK

Row | Structure (SMILES) | CC3 positive cells at the site of injection ([1]; MiaPACA2 tumors, 24 hours, diminished with increasing radial distance (FIG. 2)) | synergy with Abraxane in inducing tumor cell death ([1]; solid tumor models, combination with Abraxane (summary statement)) | Ki [2] [nM]
1 | CC1(C)CCC(CN2CCN(c3ccc(C(=O)NS(=O)(=O)c4ccc(NCC5CCOCC5)c([N+](=O)[O-])c4)c(Oc4cnc5[nH]ccc5c4)c3)CC2)=C(c2ccc(Cl)cc2)C1 [ABT-199] | increase | not observed | –
2 | CC1(C)CCC(c2ccc(Cl)cc2)=C(CN2CCN(c3ccc(C(=O)NS(=O)(=O)c4ccc(N[C@H](CCN5CCOCC5)CSc5ccccc5)c(S(=O)(=O)C(F)(F)F)c4)cc3)CC2)C1 [ABT-263] | – | – | ≤ 1
